# Literature values, collected in the Kinase Knowledgebase extract (Sharma et al. 2016).
# Molecular target: MAPK14 (human) (UniProt Q16539)
# Experiment: Assessment of MAPK14 Kinase Activity
# Sequence of MAPK14 (human) (Q16539 whole entry, looked up): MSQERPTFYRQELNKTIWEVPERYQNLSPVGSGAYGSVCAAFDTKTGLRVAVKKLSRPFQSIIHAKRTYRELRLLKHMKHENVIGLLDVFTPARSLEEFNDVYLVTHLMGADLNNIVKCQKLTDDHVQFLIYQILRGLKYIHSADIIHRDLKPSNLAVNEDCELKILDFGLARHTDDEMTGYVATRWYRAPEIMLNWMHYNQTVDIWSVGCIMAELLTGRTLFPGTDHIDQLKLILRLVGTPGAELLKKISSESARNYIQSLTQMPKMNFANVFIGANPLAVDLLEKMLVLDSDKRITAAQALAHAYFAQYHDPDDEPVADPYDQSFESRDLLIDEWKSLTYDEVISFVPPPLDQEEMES
row,IC50 [nM],Structure (SMILES)
1,2.3,Cc1ccc(C(=O)NC2CC2)cc1-c1cc2cnn(-c3ncccc3C(F)(F)F)c2n(C)c1=O
2,1000,Cn1c(=O)cc(Nc2ccc(F)cc2F)c2cnn(-c3ccc(F)cc3F)c21
3,1.9,Cc1ccc(C(=O)NC2CC2)cc1-c1cc2cnn(-c3cc(F)ccc3F)c2n(C)c1=O
4,1.7,Cc1ccc(C(=O)NC2(C)CC2)cc1-c1cc2cnn(-c3c(F)cccc3F)c2n(C)c1=O
5,1000,Cn1c(=O)cc(NC2CCOCC2)c2cnn(-c3cccc(F)c3)c21

# Continued, molecule first:
row,Structure (SMILES),IC50 [nM]
1,CNc1noc2c(-c3cc4cnn(-c5c(F)cccc5F)c4n(C)c3=O)c(C)ccc12,2
2,Cc1ccc(C(=O)Nc2ccon2)cc1-c1cc2cnn(-c3c(F)cccc3F)c2n(C)c1=O,1
3,CCn1c(=O)c(-c2cc(C(=O)NC3CC3)ccc2C)cc2cnn(-c3ccc(F)cc3F)c21,0.6
4,Cc1ccc(C(=O)NC2CC2)cc1-c1cc2cnn(-c3ccccc3C)c2n(C)c1=O,1.9
5,Cn1c(=O)cc(Nc2ccc(F)cc2)c2cnn(-c3c(F)cccc3F)c21,1000
6,Cc1ccc(C(=O)O)cc1Nc1cc(=O)n(C)c2c1cnn2-c1ccc(F)cc1F,1000
7,Cc1c(F)cc(C(=O)NC2CC2)cc1-c1cc2cnn(-c3c(F)cccc3F)c2n(C)c1=O,0.8
8,Cc1ccc(C(N)=O)cc1-c1cc2cnn(-c3c(F)cccc3F)c2n(C)c1=O,1.5
9,Cc1ccc(C(=O)NC2CC2)cc1-c1cc2cnn(-c3ccccc3Cl)c2n(C)c1=O,0.899
